Earlier results in patent US20130183261A1, “METHOD AND COMPOSITION FOR DELIVERING ACTIVE INGREDIENT INTO AIR, AND USE THEREOF” (priority 2010, published 2013).

Conditions: at 25° C.; neat solvent

In the case of `CCCOC(C)COC(C)CO` (stereo not shown) [DPnP, dipropylene glycol n-propyl ether], the Viscosity is listed as 11.4 mPa·s.
